Drawing on patent US20090298820A1, “3-SUBSTITUTED-1H-PYRROLO[2,3-B]PYRIDINE AND 3-SUBSTITUTED-1H-PYRROLO[3,2-B]PYRIDINE COMPOUNDS, THEIR USE AS MTOR KINASE AND PI3 KINASE INHIBITORS, AND THEIR SYNTHESES” (Wyeth, priority 2008, published 2009), this text covers IC50 for 18 molecules.

Read-outs that look alike come from different tables or passages of the source. Some results are limits rather than exact numbers.

What all share (type): biochemical
One assay has as its target mTOR (Homo sapiens, UniProt P42345). Briefly: mTOR enzyme assay (DELFIA format, His6-S6K substrate).
For another assay, the target named is PI3Kγ (Homo sapiens, UniProt P48736). Briefly: PI3K-gamma fluorescence polarization assay. The settings on record: read-out: PI3Kγ Median IC50. Background: Polarisation of emitted light reports the rotation of a fluorescent probe.
Sequence of PI3Kγ (P48736 whole entry, species assumed): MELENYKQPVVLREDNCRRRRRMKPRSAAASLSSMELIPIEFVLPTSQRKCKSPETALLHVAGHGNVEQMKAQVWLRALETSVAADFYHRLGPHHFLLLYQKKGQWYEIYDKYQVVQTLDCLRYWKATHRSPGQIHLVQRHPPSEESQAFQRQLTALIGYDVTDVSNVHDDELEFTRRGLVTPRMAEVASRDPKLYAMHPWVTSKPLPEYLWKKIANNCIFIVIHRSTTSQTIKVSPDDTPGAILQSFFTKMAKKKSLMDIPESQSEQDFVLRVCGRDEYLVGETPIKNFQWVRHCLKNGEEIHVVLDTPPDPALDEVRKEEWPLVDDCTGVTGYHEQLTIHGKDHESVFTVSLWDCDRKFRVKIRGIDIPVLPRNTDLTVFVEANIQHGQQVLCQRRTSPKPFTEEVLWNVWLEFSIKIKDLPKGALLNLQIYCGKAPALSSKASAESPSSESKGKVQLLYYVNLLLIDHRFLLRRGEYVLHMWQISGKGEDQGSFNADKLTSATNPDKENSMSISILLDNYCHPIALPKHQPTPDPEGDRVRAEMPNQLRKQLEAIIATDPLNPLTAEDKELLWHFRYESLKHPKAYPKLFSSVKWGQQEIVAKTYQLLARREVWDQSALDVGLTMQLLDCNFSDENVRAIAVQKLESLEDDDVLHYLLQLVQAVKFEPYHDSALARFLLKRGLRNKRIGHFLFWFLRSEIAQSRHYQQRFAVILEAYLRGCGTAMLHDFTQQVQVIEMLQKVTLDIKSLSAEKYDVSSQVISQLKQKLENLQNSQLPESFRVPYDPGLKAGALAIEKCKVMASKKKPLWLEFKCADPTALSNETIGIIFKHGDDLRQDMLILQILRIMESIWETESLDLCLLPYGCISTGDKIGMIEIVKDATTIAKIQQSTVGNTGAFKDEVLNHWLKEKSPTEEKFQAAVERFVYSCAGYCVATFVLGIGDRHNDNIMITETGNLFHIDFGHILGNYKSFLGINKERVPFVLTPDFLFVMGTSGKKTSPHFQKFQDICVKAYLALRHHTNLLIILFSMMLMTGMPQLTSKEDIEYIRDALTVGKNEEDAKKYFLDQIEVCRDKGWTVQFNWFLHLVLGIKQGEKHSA
The target in the next assay is PI3Kα (Homo sapiens, UniProt P42336). The assay is described as follows: PI3K-alpha fluorescence polarization assay. The settings on record: read-out: PI3Kα Median IC50.
Sequence of PI3Kα (P42336 whole entry, species assumed): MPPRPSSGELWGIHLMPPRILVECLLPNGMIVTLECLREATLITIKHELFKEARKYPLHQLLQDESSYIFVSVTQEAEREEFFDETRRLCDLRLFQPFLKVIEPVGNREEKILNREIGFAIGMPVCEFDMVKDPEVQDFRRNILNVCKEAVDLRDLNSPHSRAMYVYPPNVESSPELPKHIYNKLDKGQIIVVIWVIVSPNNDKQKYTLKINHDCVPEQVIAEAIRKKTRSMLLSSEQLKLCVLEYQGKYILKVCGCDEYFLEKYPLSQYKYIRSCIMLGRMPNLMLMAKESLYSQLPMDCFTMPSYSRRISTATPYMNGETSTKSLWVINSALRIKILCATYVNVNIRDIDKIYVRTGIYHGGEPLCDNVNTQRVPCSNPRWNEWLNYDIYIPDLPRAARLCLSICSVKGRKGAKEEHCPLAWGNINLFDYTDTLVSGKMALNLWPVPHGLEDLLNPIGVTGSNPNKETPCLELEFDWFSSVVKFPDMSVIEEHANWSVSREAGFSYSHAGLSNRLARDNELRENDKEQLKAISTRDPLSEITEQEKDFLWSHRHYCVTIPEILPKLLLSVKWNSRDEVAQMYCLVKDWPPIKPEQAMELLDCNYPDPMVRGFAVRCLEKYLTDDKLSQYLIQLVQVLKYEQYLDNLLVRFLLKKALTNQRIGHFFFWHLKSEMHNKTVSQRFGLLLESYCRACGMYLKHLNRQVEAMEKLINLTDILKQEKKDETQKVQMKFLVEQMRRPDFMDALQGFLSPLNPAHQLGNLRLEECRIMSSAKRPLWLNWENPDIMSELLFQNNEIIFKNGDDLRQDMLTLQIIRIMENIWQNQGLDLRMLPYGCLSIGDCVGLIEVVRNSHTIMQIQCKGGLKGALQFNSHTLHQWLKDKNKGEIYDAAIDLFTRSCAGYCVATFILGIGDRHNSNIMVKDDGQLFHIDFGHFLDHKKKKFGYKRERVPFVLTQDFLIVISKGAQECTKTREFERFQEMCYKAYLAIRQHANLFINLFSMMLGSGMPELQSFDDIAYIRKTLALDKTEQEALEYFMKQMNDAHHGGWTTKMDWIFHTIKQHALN
Sequence of PI3Kα (P27986 whole entry partner, species assumed): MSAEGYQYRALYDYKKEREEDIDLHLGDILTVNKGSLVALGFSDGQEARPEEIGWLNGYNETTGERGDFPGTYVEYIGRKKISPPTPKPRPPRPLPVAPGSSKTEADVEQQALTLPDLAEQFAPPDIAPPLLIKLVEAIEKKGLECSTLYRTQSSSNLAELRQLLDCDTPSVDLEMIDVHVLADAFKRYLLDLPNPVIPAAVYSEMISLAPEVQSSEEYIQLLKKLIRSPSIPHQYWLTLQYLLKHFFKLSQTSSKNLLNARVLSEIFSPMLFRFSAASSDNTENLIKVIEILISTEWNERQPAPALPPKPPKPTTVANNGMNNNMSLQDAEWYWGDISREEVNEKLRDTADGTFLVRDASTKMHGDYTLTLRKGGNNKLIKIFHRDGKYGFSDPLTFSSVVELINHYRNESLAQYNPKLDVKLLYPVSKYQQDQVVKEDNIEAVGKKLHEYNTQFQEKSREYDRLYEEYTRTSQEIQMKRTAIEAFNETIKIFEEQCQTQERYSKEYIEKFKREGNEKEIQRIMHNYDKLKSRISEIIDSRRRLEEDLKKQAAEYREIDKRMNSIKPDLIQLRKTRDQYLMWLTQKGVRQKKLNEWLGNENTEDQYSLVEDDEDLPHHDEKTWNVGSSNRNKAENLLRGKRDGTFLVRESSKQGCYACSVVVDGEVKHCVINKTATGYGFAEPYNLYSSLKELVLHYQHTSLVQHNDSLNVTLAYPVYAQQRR
Setting [1] is: read-out: mTOR Kinase Median IC50.

Broadly, the IC50 is the point on the concentration scale where inhibition reaches its midpoint. Take `CN(C(=O)C1CCN(c2ccnc3c2c(C=C2Oc4ccc(NC(=O)Nc5cccnc5)cc4C2=O)cn3C)CC1)[C@H]1CCNC1` [Compound 208, N-methyl-1-[1-methyl-3-({3-oxo-5-[(pyridin-3-ylcarbamoyl)amino]-1-benzofuran-2(3H)-ylidene}methyl)-H-pyrrolo[2,3-b]pyridin-4-yl]-N-[(3S)-pyrrolidin-3-yl]piperidine-4-carboxamide]: the IC50 is 50 nM at mTOR (setting [1]), greater than 10000 nM at PI3Kγ and greater than 10000 nM at PI3Kα.

On to `Cn1cc(C=C2Oc3ccc(NC(=O)Nc4cccnc4)cc3C2=O)c2c(N3CCC(C(=O)N[C@H]4CCNC4)CC3)ccnc21` [Compound 209, 1-[1-methyl-3-({3-oxo-5-[(pyridin-3-ylcarbamoyl)amino]-1-benzofuran-2(3H)-ylidene}methyl)-1H-pyrrolo[2,3-b]pyridin-4-yl]-N-[(3S)-pyrrolidin-3-yl]piperidine-4-carboxamide], for which the values for the IC50 at mTOR (setting [1]), on PI3Kγ and at PI3Kα were 26.5 nM, 4160 nM and greater than 10000 nM, respectively.

In the case of `CN(C)C1CCN(C(=O)C2CCN(c3ccnc4c3c(C=C3Oc5ccc(NC(=O)Nc6cccnc6)cc5C3=O)cn4C)CC2)C1` (stereo not drawn) [Compound 210, 1-(2-{[4-(4-{[3-(dimethylamino)pyrrolidin-1-yl]carbonyl}piperidin-1-yl)-1-methyl-1H-pyrrolo[2,3-b]pyridin-3-yl]methylidene}-3-oxo-2,3-dihydro-1-benzofuran-5-yl)-3-pyridin-3-ylurea], the IC50 at mTOR (setting [1]) was 11 nM; at PI3Kγ, 2180 nM; on PI3Kα, greater than 10000 nM.

Regarding `CN(C(=O)C1CCN(c2ccnc3c2c(C=C2Oc4ccc(NC(=O)Nc5cccnc5)cc4C2=O)cn3C)CC1)C1CCS(=O)(=O)C1` (stereo not drawn) [Compound 211, N-(1,1-dioxidotetrahydrothiophen-3-yl)-N-methyl-1-[1-methyl-3-({3-oxo-5-[(pyridin-3-ylcarbamoyl)amino]-1-benzofuran-2(3H)-ylidene}methyl)-1H-pyrrolo[2,3-b]pyridin-4-yl]piperidine-4-carboxamide], the IC50 on mTOR (setting [1]) was 11.5 nM; on PI3Kγ, greater than 10000 nM; on PI3Kα it was greater than 10000 nM.

For the molecule `Cn1cc(C=C2Oc3ccc(NC(=O)Nc4cccnc4)cc3C2=O)c2c(N3CCC(C(=O)NC4CCS(=O)(=O)C4)CC3)ccnc21` (stereo not drawn) [Compound 212, N-(1,1-dioxidotetrahydrothiophen-3-yl)-1-[1-methyl-3-({3-oxo-5-[(pyridin-3-ylcarbamoyl)amino]-1-benzofuran-2(3H)-ylidene}methyl)-1H-pyrrolo[2,3-b]pyridin-4-yl]piperidine-4-carboxamide], the IC50 worked out at 5.7 nM on mTOR (setting [1]), 5230 nM at PI3Kγ and 7450 nM on PI3Kα.

Consider `CN(C(=O)C1CCN(c2ccnc3c2c(C=C2Oc4ccc(NC(=O)Nc5cccnc5)cc4C2=O)cn3C)CC1)C1CCOCC1` [Compound 213, N-methyl-1-[1-methyl-3-({3-oxo-5-[(pyridin-3-ylcarbamoyl)amino]-1-benzofuran-2(3H)-ylidene}methyl)-1H-pyrrolo[2,3-b]pyridin-4-yl]-N-(tetrahydro-2H-pyran-4-yl)piperidine-4-carboxamide], for which the IC50 at mTOR (setting [1]) stood at 18.9 nM; at PI3Kγ, 7220 nM; at PI3Kα, 8360 nM.

Turning to `Cn1cc(C=C2Oc3ccc(NC(=O)Nc4cccnc4)cc3C2=O)c2c(N3CCC(C(=O)NC4CCOCC4)CC3)ccnc21` [Compound 214, 1-[1-methyl-3-({3-oxo-5-[(pyridin-3-ylcarbamoyl)amino]-1-benzofuran-2(3H)-ylidene}methyl)-1H-pyrrolo[2,3-b]pyridin-4-yl]-N-(tetrahydro-2H-pyran-4-yl)piperidine-4-carboxamide], the IC50 on mTOR (setting [1]) was 10.2 nM; on PI3Kγ it was greater than 10000 nM; on PI3Kα it was greater than 10000 nM.

Take `CN(Cc1ccccc1)C(=O)C1CCN(c2ccnc3c2c(C=C2Oc4ccc(NC(=O)Nc5cccnc5)cc4C2=O)cn3C)CC1` [Compound 215, N-benzyl-N-methyl-1-[1-methyl-3-({3-oxo-5-[(pyridin-3-ylcarbamoyl)amino]-1-benzofuran-2(3H)-ylidene}methyl)-1H-pyrrolo[2,3-b]pyridin-4-yl]piperidine-4-carboxamide]: the IC50 on mTOR (setting [1]) is 102 nM; on PI3Kγ it was 9280 nM; at PI3Kα, greater than 10000 nM.

As to `CN(C)C(=O)C1CCN(c2ccnc3c2c(/C=C2\Oc4ccc(NC(=O)Nc5ccc(CN6CCCCC6)cc5)cc4C2=O)cn3C)CC1` [Compound 216, N,N-dimethyl-1-(1-methyl-3-{(Z)-[3-oxo-5-({[4-(piperidin-1-ylmethyl)phenyl]carbamoyl}amino)-1-benzofuran-2(3H)-ylidene]methyl}-1H-pyrrolo[2,3-b]pyridin-4-yl)piperidine-4-carboxamide], the IC50 came out at 30 nM on mTOR (setting [1]), 231 nM at PI3Kγ and 613 nM on PI3Kα.

As for `CN(C)C(=O)C1CCN(c2ccnc3c2c(/C=C2\Oc4ccc(NC(=O)Nc5ccc(N6CCOCC6)nc5)cc4C2=O)cn3C)CC1` [Compound 217, N,N-dimethyl-1-(1-methyl-3-{(Z)-[5-{[(6-morpholin-4-ylpyridin-3-yl)carbamoyl]amino}-3-oxo-1-benzofuran-2(3H)-ylidene]methyl}-1H-pyrrolo[2,3-b]pyridin-4-yl)piperidine-4-carboxamide], the figures for the IC50 on mTOR (setting [1]), on PI3Kγ and at PI3Kα were 97 nM, greater than 10000 nM and 4010 nM, respectively.

As for `CN1CCN(c2ccc(NC(=O)Nc3ccc4c(c3)C(=O)/C(=C/c3cn(C)c5nccc(N6CCC(C(=O)N(C)C)CC6)c35)O4)cc2)CC1` [Compound 218, N,N-dimethyl-1-(1-methyl-3-{(Z)-[5-({[4-(4-methylpiperazin-1-yl)phenyl]carbamoyl}amino)-3-oxo-1-benzofuran-2(3H)-ylidene]methyl}-1H-pyrrolo[2,3-b]pyridin-4-yl)piperidine-4-carboxamide], the results for the IC50 on mTOR (setting [1]), at PI3Kγ and at PI3Kα were 445 nM, greater than 10000 nM and 994 nM, respectively.

Turning to `Cn1cc(/C=C2\Oc3ccc(NC(=O)Nc4ccc(N5CCOCC5)nc4)cc3C2=O)c2c(N3CC4CCC(C3)O4)ccnc21` [Compound 219, 1-[(2Z)-2-{[1-methyl-4-(8-oxa-3-azabicyclo[3.2.1]oct-3-yl)-1H-pyrrolo[2,3-b]pyridin-3-yl]methylidene}-3-oxo-2,3-dihydro-1-benzofuran-5-yl]-3-(6-morpholin-4-ylpyridin-3-yl)urea], the IC50 is 29 nM on mTOR (setting [1]), greater than 10000 nM at PI3Kγ and 2220 nM at PI3Kα.

On to `CN(C)CCOc1ccc(NC(=O)Nc2ccc3c(c2)C(=O)/C(=C/c2cn(C)c4nccc(N5CC6CCC(C5)O6)c24)O3)cc1` [Compound 220, 1-{4-[2-(dimethylamino)ethoxy]phenyl}-3-[(2Z)-2-{[1-methyl-4-(8-oxa-3-azabicyclo[3.2.1]oct-3-yl)-1H-pyrrolo[2,3-b]pyridin-3-yl]methylidene}-3-oxo-2,3-dihydro-1-benzofuran-5-yl]urea], for which the IC50 at mTOR (setting [1]) was 62.5 nM; on PI3Kγ it was greater than 10000 nM; at PI3Kα it was 915 nM.

Consider `CN1CCN(NC(=O)Nc2ccc3c(c2)C(=O)/C(=C/c2cn(C)c4nccc(N5CC6CCC(C5)O6)c24)O3)CC1` [Compound 221, 1-[(2Z)-2-{[1-methyl-4-(8-oxa-3-azabicyclo[3.2.1]oct-3-yl)-1H-pyrrolo[2,3-b]pyridin-3-yl]methylidene}-3-oxo-2,3-dihydro-1-benzofuran-5-yl]-3-(4-methylpiperazin-1-yl)urea], for which the results for the IC50 at mTOR (setting [1]), at PI3Kγ and on PI3Kα were 175 nM, 1010 nM and 221 nM, respectively.

As to `Cc1cnccc1CN(C)C(=O)C1CCN(c2ccnc3c2c(/C=C2\Oc4ccc(NC(=O)Nc5cccnc5)cc4C2=O)cn3C)CC1` [Compound 222, N-methyl-1-{1-methyl-3-[(Z)-{3-oxo-5-[(pyridin-3-ylcarbamoyl)amino]-1-benzofuran-2(3H)-ylidene}methyl]-1H-pyrrolo[2,3-b]pyridin-4-yl}-N-[(3-methylpyridin-4-yl)methyl]piperidine-4-carboxamide], the figures for the half-inhibitory concentration (IC50) on mTOR (setting [1]), on PI3Kγ and at PI3Kα were 34 nM, 2540 nM and 2830 nM, respectively.

With `Cc1cc(CN(C)C(=O)C2CCN(c3ccnc4c3c(/C=C3\Oc5ccc(NC(=O)Nc6cccnc6)cc5C3=O)cn4C)CC2)ccn1` [Compound 223, N-methyl-1-{1-methyl-3-[(Z)-{3-oxo-5-[(pyridin-3-ylcarbamoyl)amino]-1-benzofuran-2(3H)-ylidene}methyl]-1H-pyrrolo[2,3-b]pyridin-4-yl}-N-[(2-methylpyridin-4-yl)methyl]piperidine-4-carboxamide], the IC50 at mTOR (setting [1]) was 23 nM; on PI3Kγ it was 1270 nM; on PI3Kα, 1850 nM.

Consider `COc1ccnc(CN(C)C(=O)C2CCN(c3ccnc4c3c(/C=C3\Oc5ccc(NC(=O)Nc6cccnc6)cc5C3=O)cn4C)CC2)c1` [Compound 224, N-[(4-methoxypyridin-2-yl)methyl]-N-methyl-1-{1-methyl-3-[(Z)-{3-oxo-5-[(pyridin-3-ylcarbamoyl)amino]-1-benzofuran-2(3H)-ylidene}methyl]-1H-pyrrolo[2,3-b]pyridin-4-yl}piperidine-4-carboxamide], for which the figures for the IC50 at mTOR (setting [1]), at PI3Kγ and on PI3Kα were 23.5 nM, 1420 nM and 2370 nM, respectively.

With `Cc1cccc(CN(C)C(=O)C2CCN(c3ccnc4c3c(/C=C3\Oc5ccc(NC(=O)Nc6cccnc6)cc5C3=O)cn4C)CC2)n1` [Compound 225, N-methyl-1-{1-methyl-3-[(Z)-{3-oxo-5-[(pyridin-3-ylcarbamoyl)amino]-1-benzofuran-2(3H)-ylidene}methyl]-1H-pyrrolo[2,3-b]pyridin-4-yl}-N-[(6-methylpyridin-2-yl)methyl]piperidine-4-carboxamide], the 50% inhibitory concentration (IC50) against mTOR worked out at 49 nM; on PI3Kγ, 1920 nM; on PI3Kα, 2320 nM.
